According to patent US20080090873A1, “Sulfonamide derivatives” (priority 2006, published 2008):

Experiments:
[1] = molecular target: human adrenergic B2 receptor (Homo sapiens, UniProt P07550); assay: Whole cell luciferase reporter assay of agonist potency in CHO cells expressing the hB2 receptor; assay type: cell-based; details: 4 h incubation, read-out: EC50 - beta2
Description: Functional Assessment of Agonist Potency and Efficacy Using a Whole Cell Luciferase Reporter Assay in CHO Cells Expressing the hB2 Receptor.
CHO (Chinese Hamster Ovary) cells recombinantly expressing the human adrenergic B2 receptor and transfected with a luciferase enzyme reporter gene were maintained in growth media composed of F12:DMEM (Sigma D6421) containing 10% Foetal Bovine Serum (FBS: Sigma F03921) 10 μg/ml puromycin (Sigma N277698), 0.5 mg/ml Geneticin G418 (Sigma G7034) and 2 mM L-glutamine (Sigma G7513). The cells were kept in sterile conditions at 37° C., in an atmosphere containing 5% CO2.
hB2 Luciferase Assay Protocol
Cells were harvested for assay when they reached 80-90% confluency using enzyme free cell Dissociation Solution (Life technologies 13151-014) incubated with the cells for 5 min at 37° C. in an atmosphere containing 5% CO2. Detached cells were collected in warmed growth media (composition described above), and re-suspended in assay media (F12:DMEM (Sigma D6421) containing 1% Foetal Bovine Serum (FBS: Sigma F03921), 10 μg/ml puromycin (Sigma N277698), 0.5 mg/ml Geneticin G418 (Sigma G7034) and 2 mM L-glutamine (Sigma G7513)) to give a viable cell concentration of 1×10^6 cells/ml. 10 ul of this suspension was added to each well of a tissue culture treated low volume 384 well plate (Greiner788073) and the plate incubated in an atmosphere containing 5% CO2 at 37° C. for 2 h. Concentration ranges of test compounds were prepared in phosphate Buffered Saline containing 0.05% pluronic-F127 (Sigma P2443) and 2.5% DMSO. […] At the end of the incubation period 4 μl of Steady-Glo reagent (Steady-Glo Luciferase assay system (Promega E2520) was added to each well and the plate read immediately in a Leadseeker Plate reader (Amersham Bioscience) using a 660 nm filter. Concentration effect curves were plotted and EC50 values generated using a 4-parameter sigmoid fit using an in-house data analysis programme. Isoprenaline was run in every assay as a reference standard.

[2] = molecular target: human muscarinic M3 receptor (Homo sapiens, UniProt P20309); assay: Whole cell β-lactamase reporter assay of antagonist activity in CHO cells expressing the hM3 receptor; assay type: cell-based; details: NFAT β-lactamase reporter, inhibition of 80 nM carbamyl choline signal, 4 h
Description: Functional Assessment of Antagonist Activity Using a Whole Cell β-Lactamase Reporter Assay in CHO Cells Expressing the hM3 Receptor.
CHO (Chinese Hamster Ovary) cells recombinantly expressing the human muscarinic M3 receptor were transfected with the NFAT_β-Lac_Zeo plasmid. Cells were grown in DMEM with Glutamax-1, supplemented with 25 mM HEPES (Life Technologies 32430-027), containing 10% FCS (Foetal Calf Serum; Sigma F-7524), […] Sodium pyruvate (Sigma S-8636), NEAA (non-Essential Amino Acids; Invitrogen 11140-035) and 200 μg/ml Zeocin (Invitrogen R250-01).
Cells were harvested for assay when they reached 80-90% confluency using enzyme free cell Dissociation Solution (Life technologies 13151-014) incubated with the cells for 5 min at 37° C. in an atmosphere containing 5% CO2. Detached cells were collected in warmed growth media and centrifuged at 2000 rpm for 10 min, washed in PBS (Phosphate Buffered Saline; Life Technologies 14190-094) and centrifuged again as just described. The cells were re-suspended at 2×10^5 cells/ml in growth medium (composition as described above). 20 μl of this cell suspension was added to each well of a 384 well black clear bottomed plate (Greiner Bio One 781091-PFI). The assay buffer used was PBS supplemented with 0.05% Pluronic F-127 (Sigma 9003-11-6) and 2.5% DMSO. Muscarinic M3 receptor signalling was stimulated using 80 nM carbamyl choline (Aldrich N240-9) incubated with the cells for 4 h at 37° C./5% CO2 and monitored at the end of the incubation period using a Tecan SpectraFluor+ plate reader (λ-excitation 405 nm, emission 450 nm and 503 nm). Compounds under test were added to the assay at the beginning of the 4 h incubation period and compound activity measured as the concentration dependent inhibition of the carbamyl choline induced signal. Inhibition curves were plotted and IC50 values generated using a 4-parameter sigmoid fit and converted to Ki values using the Cheng-Prusoff correction and the KD value for carbamyl choline in the assay.

Chain of human adrenergic B2 receptor (P07550 whole entry): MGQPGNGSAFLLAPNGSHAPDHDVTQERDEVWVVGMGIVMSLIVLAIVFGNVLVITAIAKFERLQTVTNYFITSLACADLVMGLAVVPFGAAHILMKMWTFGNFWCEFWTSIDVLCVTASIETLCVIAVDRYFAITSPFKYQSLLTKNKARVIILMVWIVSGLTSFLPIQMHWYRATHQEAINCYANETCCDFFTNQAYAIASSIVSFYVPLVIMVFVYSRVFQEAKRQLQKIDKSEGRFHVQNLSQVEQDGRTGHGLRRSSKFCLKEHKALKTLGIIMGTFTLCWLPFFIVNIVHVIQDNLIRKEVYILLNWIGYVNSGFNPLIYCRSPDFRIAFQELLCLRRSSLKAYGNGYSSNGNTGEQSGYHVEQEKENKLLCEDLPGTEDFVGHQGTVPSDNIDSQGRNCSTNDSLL
Chain of human muscarinic M3 receptor (P20309 whole entry): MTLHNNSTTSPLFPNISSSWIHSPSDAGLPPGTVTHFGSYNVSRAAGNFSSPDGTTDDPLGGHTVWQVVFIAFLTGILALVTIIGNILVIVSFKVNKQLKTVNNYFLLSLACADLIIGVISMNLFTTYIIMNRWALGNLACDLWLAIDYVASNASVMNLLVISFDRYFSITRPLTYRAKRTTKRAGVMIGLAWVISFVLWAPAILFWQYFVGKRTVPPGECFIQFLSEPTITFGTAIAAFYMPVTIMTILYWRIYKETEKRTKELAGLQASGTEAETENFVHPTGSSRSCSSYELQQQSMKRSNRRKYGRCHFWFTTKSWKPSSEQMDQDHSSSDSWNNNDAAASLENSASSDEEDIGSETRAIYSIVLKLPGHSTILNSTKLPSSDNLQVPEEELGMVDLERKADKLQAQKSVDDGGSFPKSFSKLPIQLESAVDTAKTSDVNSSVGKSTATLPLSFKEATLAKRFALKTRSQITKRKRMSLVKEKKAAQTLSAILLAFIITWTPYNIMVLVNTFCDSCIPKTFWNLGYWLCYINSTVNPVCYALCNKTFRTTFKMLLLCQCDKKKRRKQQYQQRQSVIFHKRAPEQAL

Question: `CS(=O)(=O)Nc1cc([C@@H](O)CNCCCCCCCCCN2CCC(OC(=O)Nc3ccccc3-c3ccc(O)c(Cl)c3)CC2)ccc1O` [Example 2, 1-(9-{[(2R)-2-Hydroxy-2-{4-hydroxy-3-[(methylsulfonyl)amino]phenyl}ethyl]amino}nonyl)piperidin-4-yl(3′-chloro-4′-hydroxybiphenyl-2-yl)carbamate] was tested. Which EC50 [1] did it give?
Answer: 0.133 nM

Question: And the IC50 [2]?
Answer: 0.725 nM

Question: What does the source list for `CS(=O)(=O)Nc1cc([C@@H](O)CNCCCCCCCCCN2CCC(OC(=O)Nc3ccccc3-c3ccc(O)c(F)c3)CC2)ccc1O` [Example 1, 1-(9-{[(2R)-2-Hydroxy-2-{4-hydroxy-3-[(methylsulfonyl)amino]phenyl}ethyl]amino}nonyl)piperidin-4-yl(3′-fluoro-4′-hydroxybiphenyl-2-yl)carbamate]?
Answer: EC50 [1]: 1.01 nM; IC50 [2]: 2.93 nM

Question: How did the EC50 [1] turn out when `CS(=O)(=O)Nc1cc([C@@H](O)CNCCCCCCCCCN2CCC(OC(=O)Nc3ccc(F)cc3-c3ccc(O)c(Cl)c3)CC2)ccc1O` [Example 3, 1-(9-{[(2R)-2-hydroxy-2-{4-hydroxy-3-[(methylsulfonyl)amino]phenyl}ethyl]amino}nonyl)piperidin-4-yl(3′-chloro-5-fluoro-4′-hydroxybiphenyl-2-yl)carbamate] was run?
Answer: 0.252 nM

Question: And the IC50 [2]?
Answer: 1.07 nM
